From patent US7998965B2, “Glutamate aggrecanase inhibitors” (Wyeth LLC, priority 2005, dated 2011) come the findings set out here.

Molecules are shown by their SMILES. Like-named read-outs stand apart in the source and are kept apart here.

As usually defined, the IC50 is the point on the concentration scale where inhibition reaches its midpoint. A word on the Ki: it is a measure of affinity in units of concentration, obtained from inhibition or displacement.

Test [1] has as its target T1, purified recombinant human Aggrecanase-1 (rAgg1) (Homo sapiens, UniProt O75173).
T1 sequence (O75173 213-837): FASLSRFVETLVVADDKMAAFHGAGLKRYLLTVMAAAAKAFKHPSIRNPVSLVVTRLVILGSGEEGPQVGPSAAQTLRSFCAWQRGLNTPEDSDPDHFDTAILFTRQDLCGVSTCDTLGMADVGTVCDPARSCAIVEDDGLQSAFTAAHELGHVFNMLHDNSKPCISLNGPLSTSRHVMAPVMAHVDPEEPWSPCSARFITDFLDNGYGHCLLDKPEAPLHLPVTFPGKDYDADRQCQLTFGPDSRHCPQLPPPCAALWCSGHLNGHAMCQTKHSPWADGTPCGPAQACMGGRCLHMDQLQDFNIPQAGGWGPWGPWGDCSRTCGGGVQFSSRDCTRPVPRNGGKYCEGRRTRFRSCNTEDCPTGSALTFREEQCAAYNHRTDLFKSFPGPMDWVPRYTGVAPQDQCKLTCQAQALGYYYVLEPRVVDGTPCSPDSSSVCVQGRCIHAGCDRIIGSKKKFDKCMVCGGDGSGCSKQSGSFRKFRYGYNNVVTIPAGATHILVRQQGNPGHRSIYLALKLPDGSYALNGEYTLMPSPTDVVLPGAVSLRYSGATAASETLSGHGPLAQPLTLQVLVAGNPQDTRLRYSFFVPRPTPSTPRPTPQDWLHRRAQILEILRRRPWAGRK
The experiment in a line: In vitro fluorescence screen for Aggrecanase-1 inhibitors. In kind it is biochemical. The note with it: for IC50: read-out: Agg1 IC50.

Test [2] deals with T2, purified recombinant human Aggrecanase-2 (Ag2t-Phe628-Strep) (Homo sapiens, UniProt Q9UNA0).
T2 construct: the form used is denoted as Ag2t-Phe628-Strep (MW=41,737)
T2 sequence (Q9UNA0 262-628): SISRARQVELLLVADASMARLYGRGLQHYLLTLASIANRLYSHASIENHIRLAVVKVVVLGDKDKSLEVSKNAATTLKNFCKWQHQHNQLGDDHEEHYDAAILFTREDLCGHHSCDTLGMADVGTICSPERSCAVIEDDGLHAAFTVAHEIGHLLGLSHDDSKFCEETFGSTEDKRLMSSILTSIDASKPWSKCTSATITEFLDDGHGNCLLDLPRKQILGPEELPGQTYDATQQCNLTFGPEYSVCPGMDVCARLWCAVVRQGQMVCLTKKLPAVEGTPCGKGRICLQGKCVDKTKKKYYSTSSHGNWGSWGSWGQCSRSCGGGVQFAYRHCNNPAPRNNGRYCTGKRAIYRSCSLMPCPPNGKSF
The experiment in a line: In vitro fluorescence screen for Aggrecanase-2 inhibitors. In kind it is biochemical. The note with it: for IC50: read-out: Agg 2 IC50; for Ki: read-out: Ki Agg2.

Take `CC(C)(Cc1ccc(F)cc1)NC(=O)[C@H](CCC(=O)O)NC(=O)c1ccc(-c2cccc(Cl)c2)cc1` [N^2-[(3′-chlorobiphenyl-4-yl)carbonyl]-N-[2-(4-fluorophenyl)-1,1-dimethylethyl]-L-α-glutamine]: the values for the IC50 in test [1] (Table 3) and in test [2] (Table 3) were less than 30 nM and 200 nM, respectively. The inhibition constant (Ki) came to 8.8 nM in test [1] (Table 3, read-out: Ki Agg1) and 157 nM in test [2] (Table 3).
With `CC(C)(Cc1ccc(Cl)cc1)NC(=O)[C@H](CCC(=O)O)NC(=O)c1ccc(-c2ccc(F)c(Cl)c2)s1` [N^2-{[5-(3-chloro-4-fluorophenyl)-2-thienyl]carbonyl}-N-[2-(4-chlorophenyl)-1,1-dimethylethyl]-L-α-glutamine], the IC50 turned out to be 60 nM in test [1] (Table 3) and 3000 nM in test [2] (Table 3).
On to `COc1cccc(-c2ccc(C(=O)N[C@@H](CCC(=O)O)C(=O)NCc3cc(OC)c(OC)c(OC)c3)cc2)c1` [Example 17C, N^2-[(3′-methoxybiphenyl-4-yl)carbonyl]-N-(3,4,5-trimethoxybenzyl)-L-α-glutamine], for which the IC50 in test [1] (Table 2) is less than 30 nM; in test [2] (Table 2) it was 80 nM.
Turning to `CC(C)(Cc1ccc(F)cc1)NC(=O)[C@H](CCC(=O)O)NC(=O)c1ccc(-c2ccc3c(c2)OCC3)cc1` [Example 8BBBBBBBB, N^2-[4-(2,3-dihydro-1-benzofuran-6-yl)benzoyl]-N-[2-(4-fluorophenyl)-1,1-dimethylethyl]-L-α-glutamine], the IC50 in test [1] (Table 3) is 300 nM; in test [2] (Table 3) it was 200 to 600 nM.
Regarding `COc1cccc(COc2ccc(-c3ccc(C(=O)N[C@@H](CCC(=O)O)C(=O)NCC45CC6CC(CC(C6)C4)C5)cc3)cc2)c1` [Example 19A, N-(1-adamantylmethyl)-N^2-({4′-[(3-methoxybenzyl)oxy]biphenyl-4-yl}carbonyl)-L-α-glutamine], the results for the IC50 in test [1] (Table 2) and in test [2] (Table 2) were 930 nM and 1020 nM, respectively.
`CC(C)(Cc1ccc(F)cc1)NC(=O)[C@H](CCC(=O)O)NC(=O)c1ccc(-c2ccco2)cc1` [Example 8OOOOOOO, N-[2-(4-fluorophenyl)-1,1-dimethylethyl]-N^2-[4-(2-furyl)benzoyl]-L-α-glutamine]: the IC50 in test [1] (Table 3) was less than 30 nM; in test [2] (Table 3), 100 to 400 nM.
Consider `C[C@@H](NC(=O)[C@H](CCC(=O)O)NC(=O)c1ccc2c(c1)Cc1ccccc1-2)c1ccccc1` [Example 8VVVVV, N^2-(9H-fluoren-2-ylcarbonyl)-N^1-[(1R)-1-phenylethyl]-L-α-glutamine], for which the IC50 in test [1] (Table 2) was 221 nM; in test [2] (Table 2) it was 1560 nM.
Consider `COc1cc(CNC(=O)[C@H](CCC(=O)O)NC(=O)c2ccc(-c3ccc(-c4ccccc4)cc3)cc2)cc(OC)c1OC` [Example 17II, N^2-(1,1′:4′,1″-terphenyl-4-ylcarbonyl)-N-(3,4,5-trimethoxybenzyl)-L-α-glutamine], for which the IC50 in test [1] (Table 2) was 1000 to 3000 nM; in test [2] (Table 2), roughly 10000 nM.
As for `CC(C)(Cc1ccc(F)cc1)NC(=O)[C@H](CCC(=O)O)NC(=O)c1ccc(-c2ccccc2)cc1F` [N^2-[(3-fluorobiphenyl-4-yl)carbonyl]-N-[2-(4-fluorophenyl)-1,1-dimethylethyl]-L-α-glutamine], the results for the IC50 in test [1] (Table 3) and in test [2] (Table 3) were less than 30 nM and 200 nM, respectively.
Regarding `CC(C)(Cc1ccc(F)cc1)NC(=O)[C@H](CCC(=O)O)NC(=O)c1ccc(-c2ccccc2)nc1` [N-[2-(4-fluorophenyl)-1,1-dimethylethyl]-N^2-[(6-phenylpyridin-3-yl)carbonyl]-L-α-glutamine], the IC50 in test [1] (Table 3) stood at 50 nM; in test [2] (Table 3), 1000 nM.
`CCc1ccc(-c2ccc(C(=O)N[C@@H](CCC(=O)O)C(=O)NCc3cc(OC)c(OC)c(OC)c3)cc2)cc1` [Example 17E, N^2-[(4′-ethylbiphenyl-4-yl)carbonyl]-N-(3,4,5-trimethoxybenzyl)-L-α-glutamine]: the 50% inhibitory concentration (IC50) amounted to 251 nM in test [1] (Table 2) and 1040 nM in test [2] (Table 2).
With `COc1cc(CNC(=O)[C@H](CCC(=O)O)NC(=O)c2ccc(-c3c(C)cc(C)cc3C)cc2)cc(OC)c1OC` [Example 17KK, N-(3,4,5-trimethoxybenzyl)-N^2-[(2′,4′,6′-trimethylbiphenyl-4-yl)carbonyl]-L-α-glutamine], the values for the IC50 in test [1] (Table 2) and in test [2] (Table 2) were greater than 25000 nM and greater than 67000 nM, respectively.
As for `CC(C)(Cc1ccccc1)NC(=O)[C@H](CCC(=O)O)NC(=O)c1ccc(-c2cccs2)s1` [N^2-(2,2′-bithien-5-ylcarbonyl)-N-(1,1-dimethyl-2-phenylethyl)-L-α-glutamine], the IC50 was less than 30 nM in test [1] (Table 3) and 200 to 600 nM in test [2] (Table 3).
For the compound `CCC(C)(C)NC(=O)[C@H](CCC(=O)O)NC(=O)c1ccc(-c2ccccc2)cc1` [Example 8MM, N^2-(biphenyl-4-ylcarbonyl)-N^1-(1,1-dimethylpropyl)-L-α-glutamine], the Ki in test [1] (Table 1, enzyme not given, column follows Agg1 IC50, read-out: Ki) amounted to 126 nM. Besides, the IC50 in test [1] (Table 1) turned out to be 58 nM; in test [2] (Table 1), 980 nM.
Take `CC(C)(Cc1ccc(Cl)s1)NC(=O)[C@H](CCC(=O)O)NC(=O)c1ccc(-c2ccc(F)c(F)c2)cc1` [Example 8IIIIIII, N-[2-(5-chloro-2-thienyl)-1,1-dimethylethyl]-N^2-[(3′,4′-difluorobiphenyl-4-yl)carbonyl]-L-α-glutamine]: the IC50 in test [1] (Table 3) was less than 30 nM; in test [2] (Table 3) it was 42 nM.
For `CC(C)(Cc1ccc(F)cc1)NC(=O)[C@H](CCC(=O)O)NC(=O)c1ccc(-c2ccccc2)s1` [N-[2-(4-fluorophenyl)-1,1-dimethylethyl]-N^2-[(5-phenyl-2-thienyl)carbonyl]-L-α-glutamine], the IC50 in test [1] (Table 3) is less than 30 nM; in test [2] (Table 3) it was 60 to 200 nM. In addition, the Ki in test [1] (Table 3, read-out: Ki Agg1) was 3.8 nM; in test [2] (Table 3), 79 nM.
As for `COc1cccc(COc2ccc(-c3ccc(C(=O)N[C@@H](CCC(=O)O)C(=O)NCc4cc(OC)c(OC)c(OC)c4)cc3)cc2)c1` [Example 19H, N^2-({4′-[(3-methoxybenzyl)oxy]biphenyl-4-yl}carbonyl)-N-(3,4,5-trimethoxybenzyl)-L-α-glutamine], the IC50 turned out to be 69 nM in test [1] (Table 2) and 158 nM in test [2] (Table 2).
As for `O=C(O)CC[C@H](NC(=O)c1ccc(-c2ccccc2)cc1)C(=O)NCCc1ccc(-c2ccccn2)cc1` [Example 10G, N^2-(biphenyl-4-ylcarbonyl)-N^1-[2-(4-pyridin-2-ylphenyl)ethyl]-L-α-glutamine], the IC50 came out at 1000 nM in test [1] (Table 1) and 4400 nM in test [2] (Table 1).
In the case of `CC(C)(Cc1ccccc1)NC(=O)[C@H](CCC(=O)O)NC(=O)c1ccc(-c2ccc(COc3cc(C(F)(F)F)cc(C(F)(F)F)c3)cc2)cc1` [Example 15O, N^2-[(4′-{[3,5-bis(trifluoromethyl)phenoxy]methyl}biphenyl-4-yl)carbonyl]-N-(1,1-dimethyl-2-phenylethyl)-L-α-glutamine], the IC50 in test [1] (Table 3) was 52 nM; in test [2] (Table 3), 3130 nM.
Consider `CC(C)(Cc1ccc(Cl)cc1)NC(=O)[C@H](CCC(=O)O)NC(=O)c1ccc(-c2ccncc2)s1` [N-[2-(4-chlorophenyl)-1,1-dimethylethyl]-N^2-[(5-pyridin-4-yl-2-thienyl)carbonyl]-L-α-glutamine], for which the IC50 amounted to 40 nM in test [1] (Table 3) and 3400 nM in test [2] (Table 3).
Consider `COc1cccc(COc2cccc(-c3ccc(C(=O)N[C@@H](CCC(=O)O)C(=O)NCc4cc(OC)c(OC)c(OC)c4)cc3)c2)c1` [Example 15M, N^2-({3′-[(3-methoxybenzyl)oxy]biphenyl-4-yl}carbonyl)-N-(3,4,5-trimethoxybenzyl)-L-α-glutamine], for which the IC50 in test [1] (Table 3) is less than 30 nM; in test [2] (Table 3), 789 nM.
